Values joined by “and” are separate entries in the source; they are usually repeats but may differ in a detail not shown here. Equal entries are not always repeated. Toxic doses and inconclusive results are not listed.
Tested on: CD2F1 mice, L1210 leukemia ip, survival T/C
Assay: NCI In Vivo Anticancer Drug Screen. Data for tumor model L1210 Leukemia (intraperitoneal) in CD2F1 (CDF1) mice
Conditions: endpoint: mean survival time, higher = longer survival
In short: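 In this screen, transplantable tumors were grown in mice given either the compound or its vehicle. Results were expressed as the treated measurement relative to the control measurement.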

[1] = dose: 100.0 mg/kg/injection, schedule: Q04DX003 (ip), vehicle: saline with Tween-80
[2] = dose: 25.0 mg/kg/injection, schedule: Q01DX009 (ip), vehicle: saline with Tween-80
[3] = dose: 100.0 mg/kg/injection, schedule: Q01DX009 (ip), vehicle: saline with Tween-80

For `Nc1ccc(CSc2ccccc2)cc1F`, the T/C [1] was 93 % of control, the T/C (dose: 200.0 mg/kg/injection, schedule: Q04DX003 (ip), vehicle: saline with Tween-80) was 92 % of control and the T/C (dose: 400.0 mg/kg/injection, schedule: Q04DX003 (ip), vehicle: saline with Tween-80) was 108 % of control.
In the case of `O=C1c2cscc2C(=O)c2c(Cl)sc(Cl)c21`, the T/C (dose: 12.5 mg/kg/injection, schedule: Q04DX003 (ip), vehicle: saline with Tween-80) is reported as 96 % of control, the T/C [2] is reported as 103 % of control and the T/C (dose: 25.0 mg/kg/injection, schedule: Q04DX003 (ip), vehicle: saline with Tween-80) is reported as 98 % of control. For the same compound, the T/C (dose: 50.0 mg/kg/injection, schedule: Q01DX009 (ip), vehicle: saline with Tween-80) was 97 % of control, the T/C (dose: 50.0 mg/kg/injection, schedule: Q04DX003 (ip), vehicle: saline with Tween-80) was 90 % of control and the T/C [3] was 91 % of control. The T/C [1] was 100 % of control.
For `Cc1cc(SCc2ccccc2)cc(C)[o+]1`, the T/C (dose: 75.0 mg/kg/injection, schedule: Q01DX001 (ip), vehicle: saline) was 106 % of control and the T/C (dose: 150.0 mg/kg/injection, schedule: Q01DX001 (ip), vehicle: saline) was 93 % of control.
With `[Cl][Pt+2][Cl].[NH-]CCO.[NH-]CCO` the T/C (dose: 12.5 mg/kg/injection, schedule: Q04DX003 (ip), vehicle: saline) was 102 % of control and the T/C (dose: 50.0 mg/kg/injection, schedule: Q04DX003 (ip), vehicle: saline) was 118 % of control.
For `O=C1c2ccccc2C(=O)c2c(NCCN3CCCCC3)ccc(NCCN3CCCCC3)c21`, the T/C (dose: 8.0 mg/kg/injection, schedule: Q01DX009 (ip), vehicle: acid diluted with saline) was 100 % of control, the T/C (dose: 16.0 mg/kg/injection, schedule: Q01DX009 (ip), vehicle: acid diluted with saline) was 102 % of control and the T/C (dose: 32.0 mg/kg/injection, schedule: Q01DX009 (ip), vehicle: acid diluted with saline) was 110 % of control. For the same compound, the T/C (dose: 64.0 mg/kg/injection, schedule: Q01DX009 (ip), vehicle: acid diluted with saline) was 104 % of control.
With `O=C(CCl)Nc1ccccn1` the T/C (dose: 100.0 mg/kg/injection, schedule: Q01DX009 (ip), vehicle: saline) was 96 % of control, the T/C (dose: 200.0 mg/kg/injection, schedule: Q01DX009 (ip), vehicle: saline) was 102 % of control and the T/C (dose: 400.0 mg/kg/injection, schedule: Q01DX009 (ip), vehicle: saline) was 97 % of control.
`CC(=O)COc1ccccc1[N+](=O)[O-]` was tested, and the T/C (dose: 100.0 mg/kg/injection, schedule: Q01DX001 (ip), vehicle: saline with Tween-80) was 108 % of control, the T/C (dose: 200.0 mg/kg/injection, schedule: Q01DX001 (ip), vehicle: saline with Tween-80) was 104 % of control and the T/C (dose: 400.0 mg/kg/injection, schedule: Q01DX001 (ip), vehicle: saline with Tween-80) was 112 % of control.
With `CCCCC(=O)N(c1ccc(Nc2c3ccccc3nc3cc([N+](=O)[O-])ccc23)cc1)S(C)(=O)=O` the T/C (dose: 2.1 mg/kg/injection, schedule: Q04DX003 (ip), vehicle: Klucel (hydroxypropylcellulose) (HPC)) was 117 % of control, the T/C [2] was 96 % of control and the T/C [1] was 98 % of control. For the same compound, the T/C (dose: 100.0 mg/kg/injection, schedule: Q04DX003 (ip), vehicle: saline) was 167 % of control, the T/C (dose: 150.0 mg/kg/injection, schedule: Q04DX003 (ip), vehicle: saline with Tween-80) was 93 % of control and the T/C (dose: 200.0 mg/kg/injection, schedule: Q04DX003 (ip), vehicle: saline) was 113 % of control.
`O=c1[nH]cnc2c1ncn2C1OCC(O)C(O)C1O` (stereo unspecified) was tested, and the T/C (dose: 100.0 mg/kg/injection, schedule: Q01DX001 (ip), vehicle: saline) was 102 % of control, the T/C (dose: 200.0 mg/kg/injection, schedule: Q01DX001 (ip), vehicle: saline) was 97 % of control and the T/C (dose: 400.0 mg/kg/injection, schedule: Q01DX001 (ip), vehicle: saline) was 103 % of control.
With `COc1ccc2c(c1OC)CC1N(S(=O)(=O)c3ccc(C)cc3)CCC13c1ccccc1N(C(C)=O)C23` (stereo unspecified) the T/C (dose: 75.0 mg/kg/injection, schedule: Q01DX001 (ip), vehicle: other) was 95 % of control, the T/C (dose: 150.0 mg/kg/injection, schedule: Q01DX001 (ip), vehicle: other) was 89 % of control and 95 % of control and the T/C (dose: 300.0 mg/kg/injection, schedule: Q01DX001 (ip), vehicle: other) was 97 % of control and 100 % of control.
For `Cn1c(=O)sc2ccccc21`, the T/C (dose: 100.0 mg/kg/injection, schedule: Q04DX002 (ip), vehicle: saline with Tween-80) was 111 % of control and the T/C (dose: 200.0 mg/kg/injection, schedule: Q04DX002 (ip), vehicle: saline with Tween-80) was 114 % of control.
In the case of `CCOC(=O)C(C=O)(CC)C(=O)OCC`, the T/C [3] is reported as 97 % of control, the T/C (dose: 200.0 mg/kg/injection, schedule: Q01DX009 (ip), vehicle: saline with Tween-80) is reported as 94 % of control and the T/C (dose: 400.0 mg/kg/injection, schedule: Q01DX009 (ip), vehicle: saline with Tween-80) is reported as 103 % of control.
